From US9789114B2, “Compounds as HIF-1α inhibitors and manufacturing process thereof” (DONGGUK UNIVERSITY INDUSTRY-ACADEMIC COOPERATION FOUNDATION, priority 2011, dated 2017)
Read-outs that look alike come from different tables or passages of the source.

What was measured:
[1] = test system: HIF-1α-mediated HRE transcriptional activity; assay: Assay for inhibition of HIF-1α-mediated transcriptional activity (HRE reporter assay); assay type: cell-based, human; settings: Homo sapiens, HCT-116, HCT116 cells, 12 hours under hypoxia (1% O2), read-out: Inhibitory activity against HIF-1α (10 μM)
Procedure: <Experiment 1> Assay for Inhibition of HIF-1α-Mediated Transcriptional Activity (HRE Reporter Assay)
The compounds can be developed as anti-cancer drugs, because the compounds inhibiting HIF-1α-mediated HRE transcriptional activity induced by hypoxia can suppress the growth and metastasis of cancer.
Inhibitory effects of the compounds according to the present invention, from Formula I-1 to I-42, on HIF-1α-mediated transcriptional activity were evaluated using this assay. pGL3-HRE-luciferase vector was constructed as follows. Six copies of HRE (Hypoxia Responsive Element, 5′-ACGTG-3′) from human VEGF genes were inserted into the multi-cloning site of a pGL3-basic vector (Promega). A luciferase gene was used as a reporter gene.
In detail, HCT116(ATCC #CCL-247) human colon cancer cells were seeded in 48-well cell culture plates. The cells were co-transfected with 25 ng of pGL3-HRE-luciferase and 2.5 ng of Renila control vectors using Polyfect reagent next day. After 24 hours of incubation, the cells were incubated for an additional 4 hours with replaced cell culture media. The cells were treated with various concentrations (0, 1, 3, 5, 10, and 20 μM) of the above compounds according to the present invention and incubated for 12 hours under hypoxia (1% O2, 94% N2, and 5% CO2). The luciferase assay was performed using a dual-luciferase reporter assay system (Promega). After cell lysate preparation with RIPA buffer, induced luciferase activity under hypoxic conditions was determined to examine inhibitory effects of the compounds according to the present invention, from Formula I-1 to I-42, on HIF-1α-mediated transcriptional activity.

HIF-1α = target: T1, HIF-1α (Homo sapiens, UniProt Q16665); assay: Inhibition of hypoxia-induced HIF-1α accumulation, western blot in HCT116 cells; assay type: cell-based; settings: HCT116, hypoxia 1% O2, 0-30 μM, 12 hours, FIG. 1
T1 construct: endogenous in cells; host or cells: HCT116 human colon cancer cells (ATCC #CCL-247)
T1 sequence (Q16665 whole entry): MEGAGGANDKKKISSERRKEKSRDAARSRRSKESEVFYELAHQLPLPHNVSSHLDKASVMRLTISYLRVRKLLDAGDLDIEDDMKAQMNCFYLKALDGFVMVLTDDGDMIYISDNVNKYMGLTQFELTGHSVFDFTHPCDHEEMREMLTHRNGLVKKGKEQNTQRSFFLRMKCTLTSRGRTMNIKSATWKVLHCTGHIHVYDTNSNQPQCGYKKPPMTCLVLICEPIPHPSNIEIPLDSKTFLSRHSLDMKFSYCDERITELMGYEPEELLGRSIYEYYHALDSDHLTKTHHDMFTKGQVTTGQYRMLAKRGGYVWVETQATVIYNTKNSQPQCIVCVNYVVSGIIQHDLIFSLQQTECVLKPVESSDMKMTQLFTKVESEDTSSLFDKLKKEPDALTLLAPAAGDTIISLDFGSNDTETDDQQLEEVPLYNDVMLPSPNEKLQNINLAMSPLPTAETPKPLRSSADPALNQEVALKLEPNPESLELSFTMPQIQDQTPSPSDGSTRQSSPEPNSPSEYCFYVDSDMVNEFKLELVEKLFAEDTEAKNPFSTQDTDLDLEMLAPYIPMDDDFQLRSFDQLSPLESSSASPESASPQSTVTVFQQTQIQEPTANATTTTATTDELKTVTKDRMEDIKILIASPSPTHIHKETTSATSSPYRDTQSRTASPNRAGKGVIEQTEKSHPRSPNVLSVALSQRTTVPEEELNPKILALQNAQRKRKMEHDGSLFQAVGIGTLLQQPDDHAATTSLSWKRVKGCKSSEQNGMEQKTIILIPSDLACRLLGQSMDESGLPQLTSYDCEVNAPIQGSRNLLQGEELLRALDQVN
Procedure: <Experiment 2> In Vitro Studies for Inhibition of Hypoxia-Induced HIF-1α Accumulation
Inhibition of HIF-1α accumulation by the compounds according to the present invention was determined in HCT116 human colon cancer cells. In particular, western blot analysis was used to identify the compounds, I-3, I-6, I-8, I-16, I-19, I-22˜I-24, and I-27˜I-36, which inhibited HIF-1α accumulation under hypoxia.
(§1) First, HCT116 human colon cancer cells (ATCC #CCL-247) were plated at the concentration of 2×10^5 cells/ml. After 24 hours, the cells were incubated under hypoxia (1% O2, 94% N2, and 5% CO2, expressed as 1% O2 in FIG. 1) for 4 hours in order to induce HIF-la accumulation. Cells were treated with the compounds at various concentrations (0, 3, 10, 20, and 30 μM) for 12 hours under hypoxia. The cells were then harvested, and lysed in RIPA buffer to obtain nuclear extracts. Cells grown at 20% O2 (normoxia) were used as control groups to compare HIF-1α-mediated gene expression under each condition. 30 μg of the nuclear extracts per sample was separated by SDS-PAGE (sodium dodecyl sulfate-polyacrylamide gel electrophoresis), and was then transferred to PVDF (polyvinylidene fluoride membrane) membranes. After membranes were probed with HIF-1α antibodies (R&D System), HIF-1α proteins were detected with HRP-conjugated secondary antibodies (Amersham-Pharmacia). GAPDH (Glyceraldehyde 3-phosphate dehydrogenase) was used as an internal control for loading in western blot analysis.

GAPDH = GAPDH expression level (internal control) in western blot, HCT116 cells; assay type: cell-based, human; settings: HCT116, hypoxia 1% O2, 0-30 μM, 12 hours, FIG. 1
Procedure: as §1

[2] = test system: Chick embryo chorioallantoic membrane; assay: CAM (chick embryo chorioallantoic membrane) assay; assay type: in vivo; settings: 10-20 μg on coverslip, 2 days, FIG. 2
Procedure: CAM (Chick embryo chorioallantoic membrane) assay was conducted as an in vivo model to determine whether the compounds according to the present invention, I-3, I-6, I-19, and I-22, had anti-angiogenic effects or not. DMSO-treated groups were used as negative controls.
According to the present invention, CAM assay was performed as follows.
Fertilized eggs were incubated periodically rolling at 37° C. with 50% humidity for 2-3 days. When eggs were erected, approximately 3 ml of albumin was extracted from the sharp edge of the eggs using a syringe. The hole of the eggs was sealed with a tape to prevent from dryness and contamination, and the hole of the eggs was put down and incubated for 2 to 3 days. After punching a hole with 1.5 cm diameter in the round part of eggs, opaque membrane was removed carefully. The compounds (10-20 μg) according to the present invention were placed and spread on thermanox coverslip equally to dry, and then the hole in the round part of eggs put on the upper part of the fertilized eggs that vessels grew. The eggs were examined under the dissecting microscope and the results were given in FIG. 2, after covering the hole with a coverglass to protect it from contamination for 2 days.

[3] = test system: HCT116 colon cancer cells; assay: In vivo anti-cancer activity by oral administration, HCT116 tumor in nude mice; parameters: species or system BALB/c nu/nu mice; settings: for inhibitory effects on tumor growth (TGI results): 20 mg/kg oral once a day, 14 days; for inhibition in vivo at 20 mg/kg: Mus musculus
Procedure: <Example 4> In Vivo Anti-Cancer Activity of Compounds by Oral Administration
(§2) In vivo anti-cancer activity of the compounds according to the present invention, I-3, I-6, I-8, I-16, I-19, I-22, I-23, and I-24, was measured in mice to evaluate in vivo efficacy by oral administration. Specifically, the nude mice were divided into test groups and control groups, each consisting of 4 mice. In vivo efficacy was evaluated by measuring body weight, tumor volume, and tumor weight.
(§3) Female nude mice 6 weeks old (BALB/c nu/nu, Charles River) were bred in germ-free breeding rooms maintained at constant temperature and humidity. After the nude mice were anesthetized, HCT116 colon cancer cells were implanted at a count of […] cells/mouse into the rectum in BALB/c nu/nu mice and then the incisions were closed with surgical clips. The size of tumor was measured by a caliper. When the size of transplanted tumor reached to 50˜60 mm^3, the above compounds according to the present invention were administered. In more detail, after the above compounds in test groups were dissolved at concentration of 20 mg/kg in a solvent containing 80% of physiological saline, 10% of DMAC (dimethylacetamide), and 10% Tween 80 (hereinafter referred to as ‘Solvent A’), […] of dissolved compounds were orally administered once a day. Mice in control groups were treated with […] of Solvent A alone once daily.
(§4) Tumor volume and body weight were measured to identify in vivo anti-cancer activity of the compounds according to the present invention by repetitive oral administration. Tumor volume and tumor growth inhibition (TGI) in Table 2 were calculated according to the below Mathematic FIG. 1 and FIG. 2, respectively. Tumor growth inhibition was converted to a percentage in Table 2.

[4] = Body weight change and side effects during 14 days of oral treatment in nude mice; assay type: in vivo, BALB/c nu/nu mice
Procedure: as §2, §3, §4
Moreover, severe side effects and statistically significant changes of body weight in all mice treated compounds were not shown for 14 days, comparing to control groups treated with vehicle. (Table 3)

[5] = HCT-116, 72 h, day 3, 20 mg/kg oral once a day, read-out: TGI (tumor growth inhibition), tumor volume
[6] = HCT-116, 120 h, day 5, 20 mg/kg oral once a day, read-out: TGI (tumor growth inhibition), tumor volume
[7] = HCT-116, 168 h, day 7, 20 mg/kg oral once a day, read-out: TGI (tumor growth inhibition), tumor volume
[8] = HCT-116, 240 h, day 10, 20 mg/kg oral once a day, read-out: TGI (tumor growth inhibition), tumor volume
[9] = HCT-116, 288 h, day 12, 20 mg/kg oral once a day, read-out: TGI (tumor growth inhibition), tumor volume
[10] = HCT-116, 336 h, day 14, 20 mg/kg oral once a day, read-out: TGI (tumor growth inhibition), tumor volume
[11] = HCT-116, 336 h, day 14, 20 mg/kg oral once a day, read-out: TGI (tumor growth inhibition), tumor weight
[12] = day 3, 20 mg/kg oral once a day
[13] = day 5, 20 mg/kg oral once a day
[14] = day 7, 20 mg/kg oral once a day
[15] = day 10, 20 mg/kg oral once a day
[16] = day 12, 20 mg/kg oral once a day
[17] = day 14, 20 mg/kg oral once a day
[18] = day 0, 20 mg/kg oral once a day

C[N+](C)(C)CCNC(=O)CCOc1ccc(C23CC4CC(CC(C4)C2)C3)cc1.[I-] [Compound I-19, 2-(3-(4-(Adamantan-1-yl)phenoxy)propanamido)-N,N,N-trimethylethanaminium iodide]
inhibition at 10 µM [1]: 26 to 50% | HIF-1α degradation (HIF-1α): promoted HIF-1α degradation | inhibitory effects on HIF-1α accumulation (HIF-1α): significant inhibitory effects on HIF-1α accumulation | GAPDH expression levels (GAPDH): did not affect GAPDH expression levels | formation of vessels (anti-angiogenic effect) [2]: inhibited formation of vessels | inhibitory effects on tumor growth (TGI results) [3]: significant inhibitory effects on tumor growth | inhibition in vivo at 20 mg/kg [3, 5]: 34.1% | inhibition in vivo at 20 mg/kg [3, 6]: 36.4% | inhibition in vivo at 20 mg/kg [3, 7]: 36.8% | inhibition in vivo at 20 mg/kg [3, 8]: 37.7% | inhibition in vivo at 20 mg/kg [3, 9]: 37.8% | inhibition in vivo at 20 mg/kg [3, 10]: 39.2% | inhibition in vivo at 20 mg/kg [3, 11]: 41.3% | Tumor volume [3, 12]: 22.4 ± 5.6 mm^3 | Tumor volume [3, 13]: 58.8 ± 11.3 mm^3 | Tumor volume [3, 14]: 110.4 ± 11.2 mm^3 | Tumor volume [3, 15]: 162.3 ± 10.1 mm^3 | Tumor volume [3, 16]: 278.8 ± 35.0 mm^3 | Tumor volume [3, 17]: 404.7 ± 17.6 mm^3 | Tumor weight [3, 17]: 1392.4 ± 153.0 mg | Body weight change [4, 18]: 100.0 ± 0.0% | Body weight change [4, 12]: 104.0 ± 1.6% | Body weight change [4, 13]: 104.7 ± 3.1% | Body weight change [4, 14]: 104.6 ± 4.0% | Body weight change [4, 15]: 105.1 ± 4.3% | Body weight change [4, 16]: 103.4 ± 3.5% | Body weight change [4, 17]: 102.2 ± 3.8%

C[N+]1(C)CCN(C(=O)CCCOc2ccc(C34CC5CC(CC(C5)C3)C4)cc2)CC1.[I-] [Compound I-22, 4-(4-(4-(Adamantan-1-yl)phenoxy)butanoyl)-1,1-dimethylpiperazin-1-ium iodide]
inhibition at 10 µM [1]: 51 to 75% | inhibitory effects on HIF-1α accumulation (HIF-1α): significant inhibitory effects on HIF-1α accumulation | formation of vessels (anti-angiogenic effect) [2]: inhibited formation of vessels | inhibitory effects on tumor growth (TGI results) [3]: significant inhibitory effects on tumor growth | inhibition in vivo at 20 mg/kg [3, 5]: 39.8% | inhibition in vivo at 20 mg/kg [3, 6]: 40.8% | inhibition in vivo at 20 mg/kg [3, 7]: 43.4% | inhibition in vivo at 20 mg/kg [3, 8]: 45.1% | inhibition in vivo at 20 mg/kg [3, 9]: 45.1% | inhibition in vivo at 20 mg/kg [3, 10]: 47.8% | inhibition in vivo at 20 mg/kg [3, 11]: 49.5% | Tumor volume [3, 12]: 20.4 ± 1.1 mm^3 | Tumor volume [3, 13]: 54.7 ± 2.8 mm^3 | Tumor volume [3, 14]: 98.9 ± 4.8 mm^3 | Tumor volume [3, 15]: 143.1 ± 6.2 mm^3 | Tumor volume [3, 16]: 246.4 ± 10.8 mm^3 | Tumor volume [3, 17]: 347.6 ± 11.8 mm^3 | Tumor weight [3, 17]: 1197.3 ± 156.3 mg | Body weight change [4, 18]: 100.0 ± 0.0% | Body weight change [4, 12]: 104.1 ± 3.5% | Body weight change [4, 13]: 104.1 ± 4.6% | Body weight change [4, 14]: 104.1 ± 3.3% | Body weight change [4, 15]: 105.6 ± 5.1% | Body weight change [4, 16]: 103.8 ± 3.6% | Body weight change [4, 17]: 102.7 ± 4.1%

CN1CCN(C(=O)COc2ccc(C34CC5CC(CC(C5)C3)C4)cc2)CC1 [Compound I-3, 2-(4-(Adamantan-1-yl)phenoxy)-1-(4-methylpiperazin-1-yl)ethanone]
inhibition at 10 µM [1]: 76 to 100% | HIF-1α degradation (HIF-1α): promoted HIF-1α degradation | inhibitory effects on HIF-1α accumulation (HIF-1α): significant inhibitory effects on HIF-1α accumulation | GAPDH expression levels (GAPDH): did not affect GAPDH expression levels | formation of vessels (anti-angiogenic effect) [2]: inhibited formation of vessels | inhibitory effects on tumor growth (TGI results) [3]: significant inhibitory effects on tumor growth | inhibition in vivo at 20 mg/kg [3, 5]: 33.2% | inhibition in vivo at 20 mg/kg [3, 6]: 35% | inhibition in vivo at 20 mg/kg [3, 7]: 36% | inhibition in vivo at 20 mg/kg [3, 8]: 41.6% | inhibition in vivo at 20 mg/kg [3, 9]: 44.1% | inhibition in vivo at 20 mg/kg [3, 10]: 49.2% | inhibition in vivo at 20 mg/kg [3, 11]: 51.5% | Tumor volume [3, 12]: 31.6 ± 5.0 mm^3 | Tumor volume [3, 13]: 74.8 ± 11.7 mm^3 | Tumor volume [3, 14]: 133.7 ± 14.8 mm^3 | Tumor volume [3, 15]: 237.0 ± 24.9 mm^3 | Tumor volume [3, 16]: 371.4 ± 36.2 mm^3 | Tumor volume [3, 17]: 587.8 ± 48.4 mm^3 | Tumor weight [3, 17]: 2074.2 ± 373.8 mg | Body weight change [4, 18]: 100.0 ± 0.0% | Body weight change [4, 12]: 103.2 ± 2.8% | Body weight change [4, 13]: 104.7 ± 3.0% | Body weight change [4, 14]: 105.1 ± 2.8% | Body weight change [4, 15]: 104.6 ± 2.7% | Body weight change [4, 16]: 103.1 ± 2.7% | Body weight change [4, 17]: 103.7 ± 4.0%
